Test results published in patent US20230172232A1, “COMPOSITIONS AND METHODS USING AN AMINO ACID BLEND FOR PROVIDING A HEALTH BENEFIT IN AN ANIMAL” (Société des Produits Nestlé S.A., priority 2021, published 2023).

Assays:
HK2 cells = assay: Luminescent Cell Viability assay by measuring ATP (CellTiter-Glo 2.0); assay type: cell-based; conditions: for Cell Survival (Average Lum): Table 5, additional study, 48 h in medium, Control 763 951, W/O AA 565 539
Procedure: An amino acid blend study was performed using HK2 cell response to evaluate kidney health benefit. The amino acid blend composed glycine, methionine, cysteine, and glutamine. Protocol for Luminescent Cell Viability assay by measuring ATP, a key indicator of cell health is detailed hereafter.
For each experiment, a frozen stock of HK2 cells banked with less than passage 4 was thawed and expanded in normal growing medium in a humidified incubator at 37° C. in 5% CO2. HK2 cells were cultured for a maximum of 3 passages prior to cellular assays and were passaged upon reaching 70-80% confluence, approximately every 3 days.
2500 HK2 cells were seeded in 384 well plate in normal growing medium. 24 h after, cells were starved during 2 hours in HBSS buffer to remove all amino acids traces and then a new medium with specific formulation is added for 48 h incubation: Control medium with all amino acids, Medium without amino acids, Medium with 4 amino acids blend, Medium with all amino acids except 4 amino acids of interest, Medium with glycine only, Medium with methionine only, Medium with cysteine only, Medium with glutamine only, and Medium with cysteine+glutamine only.
Treatment is stopped by adding a CellTiter-Glo® 2.0 assay reagent from Promega to lyse the cells, after 20 min of incubation at room temperature with under slight shaking luminescence level was measured using a luminescent plate reader as an indicator of cell viability. Presence of ATP indicates the presence of metabolically active cells.

[1] = system: Complex I (CI) respiration of isolated mitochondria from skeletal muscle; assay: Acute oxidative stress (menadione) and mitochondrial high-resolution respirometry; assay type: in vivo; conditions: adult zebrafish, 3 μM menadione 2 h, then glycine 50, 200, 450 μM or glucose 500 μM and 5 mM in water 2 h at 28° C.; FIG. 3
Procedure: Adult AB zebrafish of 4-6 months old were exposed in water to acute oxidative stress with 3 μM Menadione (Sigma-Aldrich) incubation for 2 h at 28° C. Following the stress, fish were divided into controls and treatment groups. Controls of the oxidative stress were then incubated in clean water for 2 h at 28° C. […] After BCA quantification of protein concentration, 150 μg of crude extract were used for high-resolution respirometry quantification. The Oxygraph-2k (O2k, OROBOROS Instruments) was used for measurements of respiration. Up to three O2k instruments ([…]) were used in parallel. […] Respiration of isolated mitochondria was determined using substrate-uncoupler-inhibitor titration (SUIT) protocols (Pesta and […], Methods Mol Biol. 2012; 810:25-58) with modifications. Pyruvate, glutammate and malate (5 mM, 10 mM, 2 mM, respectively) were used as substrate to induce Complex I (CI) respiration in presence of ADP (1 mM). […] CI respiration was calculated as the difference between total respiration (CI+CII) and the addition of CI inhibitor rotenone (0.5 μM); CII respiration was calculated as the difference between inhibited CI respiration and the addition of CII inhibitor malonic acid (5 mM). Total respiration (CI+CII, Tot resp) was assessed as the difference of the respiration in presence of all substrates and the total inhibition of CI and CII.

| Structure (SMILES) | Cell Survival (Average Lum) (HK2 cells) | protective effect on cell survival (in words) (HK2 cells; Table 5 study) | Complex I dependent respiration (O2 consumption of isolated mitochondria) [1] |
| --- | --- | --- | --- |
| N[C@@H](CS)C(=O)O [cysteine] | 388 041 Lum |  |  |
| NC(=O)CC[C@H](N)C(=O)O [glutamine] | 740 156 Lum | performed similarly to the blend |  |
| NCC(=O)O [glycine] | 620 224 Lum |  | restores Complex I respiratory levels |
| CC1=CC(=O)c2ccccc2C1=O [menadione, Menadione, reference compound] |  |  | decreasing Complex I dependent respiration |
| CSCC[C@H](N)C(=O)O [methionine] | 611 869 Lum |  |  |
